For data set [1], the target named is Hepatocyte growth factor receptor (Homo sapiens, UniProt P08581). Kind of data set: Inhibition of c-Met (unknown origin).
Data set [2] is described as follows: Half life in male SPF-ICR mouse at 10 mg/kg, ip measured upto 24 hrs by LC-MS/MS analysis. It is filed as ADME, organism-based. The following applies: in vivo.
Data set [3] is described as follows: Tmax in male SPF-ICR mouse at 10 mg/kg, ip measured upto 24 hrs by LC-MS/MS analysis. It is filed as ADME, organism-based. The following applies: in vivo.
A short description of data set [4]: Cmax in male SPF-ICR mouse at 10 mg/kg, ip measured upto 24 hrs by LC-MS/MS analysis. The class given is ADME, organism-based. The following applies: in vivo.
Data set [5] in a line: AUC (0 to t) in male SPF-ICR mouse at 10 mg/kg, ip measured upto 24 hrs by LC-MS/MS analysis. It is filed as ADME, organism-based. As to conditions: in vivo.
Data set [6] is described as follows: AUC (0 to infinity) in male SPF-ICR mouse at 10 mg/kg, ip measured upto 24 hrs by LC-MS/MS analysis. The class given is ADME, organism-based. The following applies: in vivo.
Data set [7] can be described thus: MRT (0 to t) in male SPF-ICR mouse at 10 mg/kg, ip measured upto 24 hrs by LC-MS/MS analysis. It is filed as ADME, organism-based. As to conditions: in vivo.
Data set [8] in a line: MRT (0 to infinity) in male SPF-ICR mouse at 10 mg/kg, ip measured upto 24 hrs by LC-MS/MS analysis. As to conditions: in vivo. It is filed as ADME, organism-based.
Data set [9] in a line: Clearance in male SPF-ICR mouse at 10 mg/kg, ip measured upto 24 hrs by LC-MS/MS analysis. The following applies: in vivo. The class given is ADME, organism-based.
For data set [10], the system named is MDA-MB-231. Nature of the data set: Antitumor activity against human MDA-MB-231 cells xenografted in female Balb/c nude mouse assessed as tumor growth inhibition at 12.5 mg/kg/day, ip qd administered for 28 days relative to control. The class given is functional. As to conditions: MDA-MB-231, 672 h, time 28 day, read-out: TGI. In general terms: Xenograft models place foreign cells or tissue in a host animal.

The subject of data set [11] is MDA-MB-231. Kind of data set: Antitumor activity against human MDA-MB-231 cells xenografted in female Balb/c nude mouse assessed as tumor growth inhibition at 25 mg/kg/day, ip qd administered for 28 days relative to control. The class given is functional. As to conditions: MDA-MB-231, 672 h, time 28 day, read-out: TGI.
For data set [12], the system named is MDA-MB-231. Nature of the data set: Antitumor activity against human MDA-MB-231 cells xenografted in female Balb/c nude mouse assessed as tumor growth inhibition at 50 mg/kg/day, ip qd administered for 28 days relative to control. It is filed as functional. The following applies: Mus musculus, MDA-MB-231, 672 h, time 28 day, read-out: TGI.
For data set [13], the system named is Olaparib-resistant HCT116. Nature of the data set: Antitumor activity against human Olaparib-resistant HCT116 cells xenografted in female Balb/c nude mouse assessed as tumor growth inhibition at 5 mg/kg/day, iv qd administered for 21 days relative to control. The class given is functional. The following applies: Olaparib-resistant HCT116, 504 h, time 21 day, read-out: TGI.

The subject of data set [14] is Olaparib-resistant HCT116. Kind of data set: Antitumor activity against human Olaparib-resistant HCT116 cells xenografted in female Balb/c nude mouse assessed as tumor growth inhibition at 25 mg/kg/day, ip qd administered for 21 days relative to control. The class given is functional. As to conditions: Olaparib-resistant HCT116, 504 h, time 21 day, read-out: TGI.

Data set [15] concerns Olaparib-resistant HCT116. Kind of data set: Antitumor activity against human Olaparib-resistant HCT116 cells xenografted in female Balb/c nude mouse assessed as tumor growth inhibition at 50 mg/kg/day, ip qd administered for 21 days relative to control. It is filed as functional. As to conditions: Mus musculus, Olaparib-resistant HCT116, 504 h, time 21 day, read-out: TGI.

In data set [16] the test system is Olaparib-resistant HCT116. Nature of the data set: Antitumor activity against human Olaparib-resistant HCT116 cells xenografted in female Balb/c nude mouse assessed as tumor growth inhibition at 100 mg/kg/day, ip qd administered for 21 days relative to control. It is filed as functional. The following applies: Olaparib-resistant HCT116, 504 h, time 21 day, read-out: TGI.

The nature of data set [17]: Toxicity in female Balb/c nude mouse xenografted with human MDA-MB-231 cells assessed as body weight loss at 12.5 to 50 mg/kg, ip qd administered for 28 days. The class given is organism-based. As to conditions: in vivo, 672 h, dose 12.5-50 mg/kg, time 28 day.
Data set [18] can be described thus: Toxicity in female Balb/c nude mouse xenografted with human MDA-MB-231 cells assessed as adverse effects at 12.5 to 50 mg/kg, ip qd administered for 28 days. It is filed as organism-based. The following applies: in vivo, 672 h, dose 12.5-50 mg/kg, time 28 day.
Data set [19] is described as follows: Toxicity in female Balb/c nude mouse xenografted with human Olaparib-resistant HCT116 cells assessed as body weight loss at 25 to 100 mg/kg, ip qd administered for 21 days. The class given is organism-based, HCT-116. The following applies: in vivo, 504 h, dose 25-100 mg/kg, time 21 day.
A short description of data set [20]: Toxicity in female Balb/c nude mouse xenografted with human Olaparib-resistant HCT116 cells assessed as adverse effects at 25 to 100 mg/kg, ip qd administered for 21 days. The class given is organism-based, HCT-116. As to conditions: in vivo, 504 h, dose 25-100 mg/kg, time 21 day.

Here are results for two molecules from ChEMBL document CHEMBL5518224, “Rational Design of PARP1/c-Met Dual Inhibitors for Overcoming PARP1 Inhibitor Resistance Induced by c-Met Overexpression” (J Med Chem, 2024).

Hepatocyte growth factor receptor, sequence (P08581 whole entry): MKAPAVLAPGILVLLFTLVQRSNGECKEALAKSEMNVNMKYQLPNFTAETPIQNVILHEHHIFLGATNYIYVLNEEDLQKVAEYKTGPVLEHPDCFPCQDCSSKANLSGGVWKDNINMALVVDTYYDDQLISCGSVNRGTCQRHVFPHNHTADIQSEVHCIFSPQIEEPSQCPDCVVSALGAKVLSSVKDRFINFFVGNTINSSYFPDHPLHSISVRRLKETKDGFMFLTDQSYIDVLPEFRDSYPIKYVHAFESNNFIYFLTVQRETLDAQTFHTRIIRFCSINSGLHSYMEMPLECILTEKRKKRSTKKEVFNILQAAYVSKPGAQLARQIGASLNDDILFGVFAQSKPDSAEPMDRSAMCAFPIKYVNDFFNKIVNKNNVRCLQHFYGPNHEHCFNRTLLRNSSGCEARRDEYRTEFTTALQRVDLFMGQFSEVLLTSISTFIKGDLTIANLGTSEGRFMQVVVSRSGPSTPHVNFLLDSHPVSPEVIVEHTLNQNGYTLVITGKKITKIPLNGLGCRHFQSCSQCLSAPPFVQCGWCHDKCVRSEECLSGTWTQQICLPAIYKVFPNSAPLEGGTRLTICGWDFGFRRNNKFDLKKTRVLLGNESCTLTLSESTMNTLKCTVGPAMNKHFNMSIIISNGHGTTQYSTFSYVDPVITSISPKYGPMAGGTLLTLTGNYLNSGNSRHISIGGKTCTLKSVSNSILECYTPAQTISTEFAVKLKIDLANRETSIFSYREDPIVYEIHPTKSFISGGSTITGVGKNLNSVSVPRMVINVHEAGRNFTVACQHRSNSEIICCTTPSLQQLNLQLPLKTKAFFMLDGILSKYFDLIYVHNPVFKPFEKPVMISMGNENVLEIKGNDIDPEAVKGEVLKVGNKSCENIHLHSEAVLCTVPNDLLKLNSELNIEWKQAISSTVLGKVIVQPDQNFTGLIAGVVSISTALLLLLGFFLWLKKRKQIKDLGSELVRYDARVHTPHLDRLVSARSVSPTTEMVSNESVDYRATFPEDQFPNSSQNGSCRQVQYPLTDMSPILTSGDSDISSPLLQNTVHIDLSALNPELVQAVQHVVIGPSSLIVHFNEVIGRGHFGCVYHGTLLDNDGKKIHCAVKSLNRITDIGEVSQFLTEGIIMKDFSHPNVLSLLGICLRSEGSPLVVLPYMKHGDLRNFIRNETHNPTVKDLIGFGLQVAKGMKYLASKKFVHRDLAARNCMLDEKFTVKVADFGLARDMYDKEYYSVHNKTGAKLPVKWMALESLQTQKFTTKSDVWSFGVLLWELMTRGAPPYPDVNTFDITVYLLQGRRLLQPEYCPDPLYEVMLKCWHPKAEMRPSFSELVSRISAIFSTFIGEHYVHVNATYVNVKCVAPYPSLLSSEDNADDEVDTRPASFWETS

As for `O=C1NC(=O)[C@@H](c2cn3c4c(cccc24)CCC3)[C@@H]1c1c[nH]c2ccccc12` [TIVANTINIB], the affinity in [1] corresponds to a Ki of 335 nM.
On to `Cl.O=C(c1cc(Cc2n[nH]c(=O)c3ccccc23)ccc1F)N1CCN(c2ccc3c(OCCn4nc(-c5cccnc5)ccc4=O)ccnc3c2)CC1`, for which the half-life in [2] is 1.42 h. For the same molecule, the time of peak concentration (Tmax) in [3] came out at 0.25 h. In data set [4], the highest level (Cmax) was 152 ng/mL. The molecule also showed an AUC(0-t) at 24 h in [5] of 95.4 ng·h/mL. In addition, the area under the curve AUC(0-inf) in data set [6] was found to be 96.7 ng·h/mL. The molecule also yielded an MRT last at 24 h in [7] of 1.67 h. In addition, the MRT inf in data set [8] turned out to be 1.77 h. The apparent clearance CL/F in [9] was 2020 mL/min/kg. In the data set on MDA-MB-231 [10], the inhibition in vivo at 12.5 mg/kg/day worked out at 49%. Moreover, the figures for the inhibition in vivo at 25 mg/kg/day (in the data set with MDA-MB-231 [11]; in data set [14]) were 60% and 62%, respectively. Also, the inhibition in vivo at 50 mg/kg/day in the data set on MDA-MB-231 [12] was found to be 77%; in data set [15] it was 64%. For the same molecule, the inhibition in vivo at 5 mg/kg/day in data set [13] worked out at 59%. Besides, the inhibition in vivo at 100 mg/kg/day in data set [16] was determined as 70%. Also, the Activity result in [17], in data set [18], in data set [19] and in data set [20] was “Non-Toxic” throughout.

One may read the Ki as the equilibrium dissociation constant of an inhibitor or competing ligand from its target. Higher therefore signals weaker binding. The half-life is how long it takes for the measured level to halve. The low end stands for rapid decline, the high end for slow decline. One may read the Tmax as the time at which the peak concentration occurs. Broadly, the Cmax is the peak of the concentration-time curve. A word on the AUC(0-t): it is the area under the concentration-time curve up to a stated or last time point. As usually defined, the AUC(0-inf) is total exposure, with the tail of the curve extrapolated. As usually defined, the MRT last is a mean duration of stay, worked out from the concentration-time curve. One may read the MRT inf as a mean duration of stay, worked out from the concentration-time curve. A word on the CL/F: it is the apparent clearance, not corrected for the fraction that reaches the circulation.
